Patent US20110183389A1, “PRODUCTION OF LACTIC ACID FROM HEMICELLULOSE EXTRACTS” (priority 2009, published 2011)
Where two headings read alike, the source gives them in different places.

Tested on: Bacillus coagulans MXL-9
Details: for fermentation time: control consumed xylose within 14 hours; for Ferment Time / Acetic Acid Produced / Ethanol Produced / Formic Acid Produced / Lactic Acid Prod. Rate / Lactic Acid Produced / Lactic Acid Yield / Total Products Yield / Xylose Consumed: pH 6.5, 50° C.
[1] = 30 g/L inhibitor, 20 g/L xylose
[2] = inhibitor conc. 10 g/L, 20 g/L xylose
[3] = inhibitor conc. 20 g/L, 20 g/L xylose
[4] = inhibitor conc. 30 g/L, 20 g/L xylose

| Compound | Ferment Time [2] [h] | Acetic Acid Produced (inhibitor conc. 10 g/L) [g/L] | Ethanol Produced (inhibitor conc. 10 g/L) [g/L] | Formic Acid Produced (inhibitor conc. 10 g/L) [g/L] | Lactic Acid Prod. Rate (inhibitor conc. 10 g/L) [g/L/h] | Lactic Acid Produced (inhibitor conc. 10 g/L) [g/L] | Lactic Acid Yield (inhibitor conc. 10 g/L) [%] | Total Products Yield (inhibitor conc. 10 g/L) [%] | Xylose Consumed (inhibitor conc. 10 g/L) [g/L] | Ferment Time [3] [h] | Acetic Acid Produced (inhibitor conc. 20 g/L) [g/L] | Ethanol Produced (inhibitor conc. 20 g/L) [g/L] | Formic Acid Produced (inhibitor conc. 20 g/L) [g/L] | Lactic Acid Prod. Rate (inhibitor conc. 20 g/L) [g/L/h] | Lactic Acid Produced (inhibitor conc. 20 g/L) [g/L] | Lactic Acid Yield (inhibitor conc. 20 g/L) [%] | Total Products Yield (inhibitor conc. 20 g/L) [%] | Xylose Consumed (inhibitor conc. 20 g/L) [g/L] | Ferment Time [4] [h] | Acetic Acid Produced (inhibitor conc. 30 g/L) [g/L] | other results |
| --- | --- | --- | --- | --- | --- | --- | --- | --- | --- | --- | --- | --- | --- | --- | --- | --- | --- | --- | --- | --- | --- |
| CC(=O)O [HAc, acetic acid] | 17 | 0.0 | 1.0 | 1.1 | 1.0 | 17.3 | 81.0 | 90.7 | 21.4 | 22 | 0.0 | 0.8 | 0.5 | 0.9 | 19.3 | 93.6 | 99.8 | 20.6 | 60 | 0.0 | fermentation time (10 g/L inhibitor): complete in under a day; fermentation time (20 g/L inhibitor): complete in under a day; lag phase [1]: longer lag phase; overall lactic acid yield [1]: not diminished; fermentation time (30 g/L inhibitor): two days; Ethanol Produced (inhibitor conc. 30 g/L): 0.4 g/L; Formic Acid Produced (inhibitor conc. 30 g/L): 0.4 g/L; Lactic Acid Prod. Rate (inhibitor conc. 30 g/L): 0.3 g/L/h; Lactic Acid Produced (inhibitor conc. 30 g/L): 18.5 g/L; Lactic Acid Yield (inhibitor conc. 30 g/L): 91.4%; Total Products Yield (inhibitor conc. 30 g/L): 95.3%; Xylose Consumed (inhibitor conc. 30 g/L): 20.2 g/L |
| [Na] [Na, sodium] | 32 | 0.8 | 0.0 | 1.3 | 0.6 | 18.8 | 83.1 | 92.4 | 22.4 | 62 | 0.7 | 0.0 | 1.3 | 0.3 | 19.6 | 85.9 | 94.5 | 22.7 | 150 | 0.0 | lag time (20 g/L inhibitor, xylose): increased the lag time; overall product yield (20 g/L inhibitor, xylose): did not affect overall product yield; inhibition of xylose fermentation (30 g/L inhibitor): completely inhibitory; cell growth (30 g/L inhibitor, over the course of 6 days): no cell growth occurred; Ethanol Produced (inhibitor conc. 30 g/L): 0.0 g/L; Formic Acid Produced (inhibitor conc. 30 g/L): 0.0 g/L; Lactic Acid Prod. Rate (inhibitor conc. 30 g/L): 0.0 g/L/h; Lactic Acid Produced (inhibitor conc. 30 g/L): 0.0 g/L; Lactic Acid Yield (inhibitor conc. 30 g/L): 2.6%; Total Products Yield (inhibitor conc. 30 g/L): 2.6%; Xylose Consumed (inhibitor conc. 30 g/L): 0.8 g/L |
